Results reported in publication PMC12055641, “The Study of Antistaphylococcal Potential of Omiganan and Retro-Omiganan Under Flow Conditions” (Probiotics and Antimicrobial Proteins, 2024).
No end group written: not given here.

Legend:
[1] = test system: S. aureus ATCC 6538 biofilm; conditions: ATCC 6538, reference strain
[2] = test system: S. aureus ATCC 6538 biofilm; conditions: ATCC 6538, reference strain; remark: listed apart in the source
S. aureus ATCC 6538 = conditions: ATCC 6538, reference strain
[3] = test system: S. aureus clinical strain 015N (MRSA) biofilm; conditions: clinical strain 015N biofilm, 24 h
From the text: (§1) Clinical S. aureus strains were collected from patients with atopic dermatitis during their visits to the Outpatient Clinic and hospitalization in the Department of Dermatology, Venereology and Allergology at Medical University of Gdańsk (following the approval from the ethics committee, Approval Number NKBBN/242–477/2014). Reference strains of S. aureus ATCC 25923, S. aureus ATCC 33591, S. aureus ATCC 9144, and S. aureus ATCC 12598 were obtained from the American Type Culture Collection. All the strains were stored at − 80 °C in Roti®-Store cryo vials (Carl Roth GmbH, Karlsruhe, Germany) and before the tests were transferred into fresh Mueller–Hinton Medium (BioMaxima, Lublin, Poland) and incubated for 24 h at 37 °C. Subsequently, each bacterial inoculum was seeded on Mueller–Hinton agar plates (BioMaxima) and incubated again for 24 h. The cultures prepared in this way were used in further antimicrobial assays. Minimum inhibitory concentrations (MICs) were determined according to the Clinical and Laboratory Standards Institute recommendations. […] The experiments were conducted on 96-well microtiter plates, with a final volume of 100 μL. Additionally, in the case of daptomycin, the medium was supplemented with Ca^2+ (50 mg/L). Cell densities were adjusted spectrophotometrically (Multiskan™ GO Microplate Spectrophotometer, Thermo Scientific) at 600 nm. The MICs were taken as the lowest drug concentration at which a visible growth of the microorganisms was inhibited. Minimum biofilm eliminating concentrations (MBECs) were determined on 96-well flat-bottomed microtiter polystyrene plates with resazurin (7-hydroxy-3H-phenoxazin-3-one 10-oxide sodium salt) as a cell viability reagent. To do this, the plates were filled with 100 μL of the initial inoculums of bacteria (0.5 × 10^7 CFU/mL) in the Mueller–Hinton broth and incubated for 24 h at 37 °C. […] After 24 h of incubation, 20 μL of resazurin (4 mg/mL) was added to each well and the MBEC values were read. Minimum biofilm inhibitory concentrations (MBICs) were also determined on 96-well flat-bottomed microtiter polystyrene plates as described previously. To do this, 50 μL of the compounds in the concentration range, diluted MHB, were prepared. Subsequently, the 50 μL of the staphylococcal inoculums were added to reach the same density of bacteria as that in the MBEC assay. After 24 h of incubation at 37 °C, the wells were rinsed three times with PBS and the fresh medium (100 μL) with resazurin (0.6 mg/mL) was added. Then, after 1 h of incubation, MBICs were read. […] All experiments were conducted in triplicate.

[4] = test system: S. aureus clinical strain 060S biofilm
From the text: as §1

[5] = test system: S. aureus clinical strain 043SC (MRSA) biofilm; conditions: clinical strain 043SC biofilm, 24 h
From the text: as §1

[6] = test system: S. aureus clinical strain 004N (MRSA); conditions: 24 h
From the text: as §1

[7] = test system: reference and clinical strains of staphylococci (S. aureus); conditions: 24 h
From the text: as §1

[8] = test system: S. aureus clinical strain 031S
From the text: as §1

[9] = test system: S. aureus clinical strain 051N (MRSA) biofilm; conditions: clinical strain 051N biofilm, 24 h
From the text: as §1

[10] = test system: S. aureus clinical strain 051N (MRSA); conditions: 24 h
From the text: as §1

[11] = test system: biofilm of reference and clinical strains of staphylococci (S. aureus); conditions: for mean MBIC (initial values): average over 14 strains, polystyrene 96-well plates, not corrected
From the text: as §1

[12] = test system: S. aureus clinical strain 009S biofilm
From the text: as §1

S. aureus ATCC 9144 = conditions: ATCC 9144, reference strain
From the text: as §1

S. aureus ATCC 25923 = conditions: ATCC 25923, reference strain
From the text: as §1

[13] = test system: S. aureus clinical strain 005S biofilm
From the text: as §1

[14] = test system: S. aureus clinical strain 043SC (MRSA); conditions: 24 h
From the text: as §1

[15] = test system: S. aureus ATCC 33591 (MRSA); conditions: ATCC 33591, 24 h
From the text: as §1

[16] = test system: S. aureus clinical strain 005S
From the text: as §1

[17] = test system: S. aureus clinical strain 009S
From the text: as §1

[18] = test system: S. aureus clinical strain 060S
From the text: as §1

[19] = test system: S. aureus clinical strain 030N
From the text: as §1

S. aureus ATCC 12598 = conditions: ATCC 12598, reference strain
From the text: as §1

[20] = test system: S. aureus ATCC 25923 biofilm; conditions: ATCC 25923, reference strain
From the text: as §1

[21] = test system: S. aureus clinical strain 031S biofilm
From the text: as §1

[22] = test system: S. aureus ATCC 12598 biofilm; conditions: ATCC 12598, reference strain
From the text: as §1

[23] = test system: S. aureus clinical strain 030N biofilm
From the text: as §1

[24] = test system: S. aureus clinical strain 015N (MRSA); conditions: 24 h
From the text: as §1

[25] = test system: S. aureus ATCC 33591 (MRSA) biofilm; conditions: ATCC 33591, 24 h
From the text: as §1

[26] = test system: S. aureus ATCC 9144 biofilm; conditions: ATCC 9144, reference strain
From the text: as §1

[27] = test system: S. aureus clinical strain 004N (MRSA) biofilm; conditions: clinical strain 004N biofilm, 24 h
From the text: as §1

[28] = test system: human keratinocytes (HaCaT); format: cell-based; conditions: 24 h
Experimental: To evaluate the cytotoxicity of the peptides (IC50), the classic MTT assay on 96-well plates was performed for human keratinocytes (HaCaT) which were acquired from the ATCC. The assay utilizes colorimetric determination of the cell metabolic activity, and the color intensity reflects the number of live cells that can be measured spectrophotometrically. […] DMSO was added to the control cells at a final concentration of 1.0% (v/v), which was related to the maximum concentration of the solvent compounds used in the experiment. After 24 h of incubation at 37 °C (humidified 5% CO2 incubator) with the peptides, a medium containing 1 mg/mL of MTT was added to the wells up to a final concentration of 0.5 mg/mL. Subsequently, the plates were incubated at 37 °C for 4 h. Then, the medium was aspirated, and the formazan product was solubilized with DMSO. The background absorbance at 630 nm was subtracted from that at 570 nm for each well (Epoch, BioTek Instruments, USA). Six replicates were conducted for each concentration. All experiments were repeated at least twice and the resulting IC50 values were calculated with GraFit 7 software (v. 7.0, Erithacus, Berkley, CA, USA).

Question: Which results are given for ILRWPWWPWRRK-NH2 [Omiganan TFA^−]?
Answer: MBEC [1]: 32 µg/mL; MBIC [2]: 32 µg/mL; MIC (S. aureus ATCC 6538): 4 µg/mL; MBEC [3]: 64 µg/mL; MBIC [3]: 16 µg/mL; MBEC [4]: 16 µg/mL; MBIC [4]: 2 µg/mL; MBEC [5]: 32 µg/mL; MBIC [5]: 16 µg/mL; MIC [6]: 8 µg/mL; mean MIC (corrected values) [7]: 7.75 µg/mL; mean MIC (initial values) [7]: 7.75 µg/mL; MIC [8]: 1 µg/mL; MBEC [9]: 64 µg/mL; MBIC [9]: 32 µg/mL; MIC [10]: 16 µg/mL; mean MBEC (corrected values) ([11]; 24 h): 42.29 µg/mL; mean MBEC (initial values) ([11]; 24 h): 42.29 µg/mL; mean MBIC (initial values) [11]: 17.54 µg/mL; mean MBIC (corrected values) ([11]; biofilm of reference and clinical strains of staphylococci, 24 h): 17.54 µg/mL; MBEC [12]: 32 µg/mL; MBIC [12]: 1 µg/mL; MIC (S. aureus ATCC 9144): 4 µg/mL; MIC (S. aureus ATCC 25923): 16 µg/mL; MBEC [13]: 16 µg/mL; MBIC [13]: 2 µg/mL; MIC [14]: 8 µg/mL; MIC [15]: 16 µg/mL; MIC [16]: 1 µg/mL; MIC [17]: 0.5 µg/mL; MIC [18]: 2 µg/mL; MIC [19]: 8 µg/mL; MIC (S. aureus ATCC 12598): 8 µg/mL; MBEC [20]: 128 µg/mL; MBIC [20]: 32 µg/mL; MBEC [21]: 16 µg/mL; MBEC [22]: 32 µg/mL; MBIC [22]: 32 µg/mL; MBEC [23]: 32 µg/mL; MBIC [23]: 16 µg/mL; MIC [24]: 16 µg/mL; MBEC [25]: 32 µg/mL; MBIC [25]: 32 µg/mL; MBEC [26]: 32 µg/mL; MBIC [26]: 16 µg/mL; MBEC [27]: 64 µg/mL; MBIC [27]: 16 µg/mL; IC50 [28]: 77.10 µg/mL

Question: How did the MBEC [1] turn out when KRRWPWWPWRLI-NH2 [Retro-omiganan TFA^−] was run?
Answer: 64 µg/mL

Question: What about the MBIC [2] of the same substance?
Answer: 16 µg/mL

Question: What about the MIC (S. aureus ATCC 6538) of the same substance?
Answer: 8 µg/mL

Question: And the MBEC [3]?
Answer: 32 µg/mL

Question: And the MBIC [3]?
Answer: 16 µg/mL

Question: What about the MBEC [4] of the same substance?
Answer: 16 µg/mL

Question: What about the MBIC [4] of the same substance?
Answer: 1 µg/mL

Question: And the MBEC [5]?
Answer: 16 µg/mL

Question: What about the MBIC [5] of the same substance?
Answer: 8 µg/mL

Question: And the MIC [6]?
Answer: 8 µg/mL

Question: And the “mean MIC (initial values)” value [7]?
Answer: 7.18 µg/mL

Question: And the MIC [8]?
Answer: 2 µg/mL

Question: And the MBEC [9]?
Answer: 32 µg/mL

Question: And the MBIC [9]?
Answer: 32 µg/mL

Question: And the MIC [10]?
Answer: 8 µg/mL

Question: And the “mean MBEC (initial values)” value ([11]; 24 h)?
Answer: 40.00 µg/mL

Question: And the “mean MBIC (initial values)” value [11]?
Answer: 11.82 µg/mL

Question: And the MBEC [12]?
Answer: 16 µg/mL

Question: What about the MBIC [12] of the same substance?
Answer: 2 µg/mL

Question: What about the MIC (S. aureus ATCC 9144) of the same substance?
Answer: 8 µg/mL

Question: What about the MIC (S. aureus ATCC 25923) of the same substance?
Answer: 8 µg/mL

Question: What about the MBEC [13] of the same substance?
Answer: 16 µg/mL

Question: And the MBIC [13]?
Answer: 2 µg/mL

Question: What about the MIC [14] of the same substance?
Answer: 8 µg/mL

Question: And the MIC [15]?
Answer: 16 µg/mL

Question: What about the MIC [16] of the same substance?
Answer: 0.5 µg/mL

Question: What about the MIC [17] of the same substance?
Answer: 1 µg/mL

Question: What about the MIC [18] of the same substance?
Answer: 1 µg/mL

Question: And the MIC [19]?
Answer: 16 µg/mL

Question: And the MIC (S. aureus ATCC 12598)?
Answer: 8 µg/mL

Question: What about the MBEC [20] of the same substance?
Answer: 128 µg/mL

Question: What about the MBIC [20] of the same substance?
Answer: 16 µg/mL

Question: And the MBEC [21]?
Answer: 16 µg/mL

Question: And the MBEC [22]?
Answer: 32 µg/mL

Question: And the MBIC [22]?
Answer: 16 µg/mL

Question: What about the MBEC [23] of the same substance?
Answer: 32 µg/mL

Question: What about the MBIC [23] of the same substance?
Answer: 8 µg/mL

Question: And the MIC [24]?
Answer: 8 µg/mL

Question: And the MBEC [25]?
Answer: 64 µg/mL

Question: What about the MBIC [25] of the same substance?
Answer: 16 µg/mL

Question: And the MBEC [26]?
Answer: 32 µg/mL

Question: And the MBIC [26]?
Answer: 16 µg/mL

Question: And the MBEC [27]?
Answer: 64 µg/mL

Question: And the MBIC [27]?
Answer: 16 µg/mL

Question: And the IC50 [28]?
Answer: 29.51 µg/mL
